The source of these data is ChEMBL document CHEMBL1138947, “Potent inhibitors of the Qi site of the mitochondrial respiration complex III” (J Med Chem, 2006).

The source made the active and inactive calls. The calls are words filed in the database; no cut-off is given here.

For assay [1], the system named is Parastagonospora nodorum. Description: Inhibition of Septoria nodorum growth in wheat at 40 ppm. Format: functional, organism-based.
For assay [2], the system named is Parastagonospora nodorum. Description: Inhibition of Septoria nodorum growth. Format: functional.
Assay [3] deals with T1, Mitochondrial complex II; succinate dehydrogenase (Septoria tritici, UniProt G4XX53+O42772).
T1 sequence (G4XX53 whole entry): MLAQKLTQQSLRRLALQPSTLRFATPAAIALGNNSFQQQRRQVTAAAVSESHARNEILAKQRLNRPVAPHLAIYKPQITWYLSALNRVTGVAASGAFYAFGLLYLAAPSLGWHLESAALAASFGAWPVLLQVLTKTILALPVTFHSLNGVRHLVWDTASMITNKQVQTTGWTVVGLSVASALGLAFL
T1 sequence (O42772 whole entry): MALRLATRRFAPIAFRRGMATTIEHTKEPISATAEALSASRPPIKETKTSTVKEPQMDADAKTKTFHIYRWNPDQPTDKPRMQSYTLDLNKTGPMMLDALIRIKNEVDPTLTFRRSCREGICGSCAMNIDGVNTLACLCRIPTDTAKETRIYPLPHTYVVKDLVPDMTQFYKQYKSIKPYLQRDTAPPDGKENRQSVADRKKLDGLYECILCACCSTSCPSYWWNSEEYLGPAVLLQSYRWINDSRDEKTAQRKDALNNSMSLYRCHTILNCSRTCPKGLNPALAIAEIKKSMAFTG
Description: Inhibition of Septoria nodorum succinate dehydrogenase and Qi site of mitochondrial respiratory chain complex 3 by FMET2-3 assay. The assay is classed as protein-complex assay, Parastagonospora nodorum.

As usually defined, the IC50 is the concentration at which inhibition is half-maximal.

For the compound `O=C(Nc1ccc(Oc2ccccc2)cc1)c1ccc2[nH]nnc2c1O`, the result in the assay on Parastagonospora nodorum [1] was inactive. Further, the GR50 in the assay on Parastagonospora nodorum [2] was >30 µM.
Take `CCCCCC[C@H]1C(=O)O[C@H](C)[C@H](NC(=O)c2cccc(NC=O)c2O)C(=O)O[C@@H](C)[C@@H]1OC(=O)CC(C)C` [ANTIMYCIN A]: in the assay with Parastagonospora nodorum [1], the outcome was inactive. For the same compound, in assay [3], the IC50 stood at 2 nM. This compound came in with a GR50 in the assay with Parastagonospora nodorum [2] of 0.033 µM.
Turning to `O=C(Nc1ccc(Oc2ccccc2)cc1)c1ccc2c[nH]nc2c1O`, the result in the assay on Parastagonospora nodorum [1] was inactive. The compound also yielded an IC50 in assay [3] of 127 nM. The compound further registered a GR50 in the assay on Parastagonospora nodorum [2] of 1.909 µM.
Regarding `O=C(Nc1ccc(Oc2ccccc2)cc1)c1ccc2nn[nH]c2c1O`, half-maximal inhibition in assay [3] (IC50) was put at 32 nM.
Regarding `O=C(Nc1ccc(Oc2ccc(C(F)(F)F)cc2)cc1)c1ccc2cn[nH]c2c1O`, in the assay with Parastagonospora nodorum [1], the outcome was inactive. The compound further yielded a half-inhibitory concentration (IC50) in assay [3] of 26 nM. This compound showed a GR50 in the assay with Parastagonospora nodorum [2] of 0.343 µM.
For `O=C(Nc1ccc(Oc2ccc(C(F)(F)F)cc2)cc1)c1sc2c[nH]nc2c1O` the same measures were “inactive”, 26 nM and 11.517 µM.
For `O=C(Nc1ccc(Oc2ccccc2)cc1)c1ccc2[nH]cnc2c1O` the same measures were “inactive”, > 30000 nM and >30 µM.
For `O=C(Nc1ccc(Oc2ccc(C(F)(F)F)cc2)cc1)c1ccc2[nH]nnc2c1O` the same measures were “inactive”, 5 nM and >30 µM.
